Reference: patent publication US6482921B1, “Uridyl peptide antibiotic (UPA) derivatives, their synthesis and use” (Essential Therapeutics, Inc., priority 1999, dated 2002)
Converted amounts (≈) assume the structure as drawn.

How the values were obtained:
[1] = test system: Pseudomonas aeruginosa PAM 1020; experiment: MIC broth microdilution, P. aeruginosa PAM 1020 (wild type); type: cell-based; settings: for MIC (μg/ml) Broth microdilution: P. aeruginosa PAM 1020
[2] = test system: Pseudomonas aeruginosa PAM 1154; experiment: MIC broth microdilution, P. aeruginosa PAM 1154 (OprM::Hg); type: cell-based; settings: for MIC (μg/ml) Broth microdilution: P. aeruginosa PAM 1154 OprM::Hg
[3] = test system: Pseudomonas aeruginosa PAM 1135; experiment: MIC broth microdilution, P. aeruginosa PAM 1135 (high level UPA resistance); type: cell-based; settings: for MIC (μg/ml) Broth microdilution: P. aeruginosa PAM 1135 UPA1^r
[4] = test system: Escherichia Coli MC 4100; experiment: MIC broth microdilution, E. coli MC 4100 (wild type); type: cell-based; settings: for MIC (μg/ml) Broth microdilution: E. coli MC 4100
[5] = test system: Escherichia Coli MC 4100 AcrAB; experiment: MIC broth microdilution, E. coli MC 4100 AcrAB (ΔAcrAB); type: cell-based; settings: for MIC (μg/ml) Broth microdilution: E. coli AcrAB
[6] = test system: Escherichia Coli MC 4100 AcrAB UPA3r; experiment: MIC broth microdilution, E. coli MC 4100 AcrAB UPA3r (ΔAcrAB, UPA resistant); type: cell-based; settings: for MIC (μg/ml) Broth microdilution: E. coli AcrAB UPA3^r
[7] = test system: Staphylococcus aureus ATCC 29213; experiment: MIC broth microdilution, S. aureus ATCC 29213 (wild type); type: cell-based; settings: for MIC (μg/ml) Broth microdilution: S. aureus ATCC 29213
[8] = test system: Staphylococcus aureus 8325-4; experiment: MIC broth microdilution, S. aureus 8325-4 (wild type); type: cell-based; settings: for MIC (μg/ml) Broth microdilution: S. aureus 8325-4
[9] = test system: bacteria; experiment: Antibacterial activity, stated in words; type: cell-based
[10] = test system: Pseudomonas aeruginosa PAM 1323; experiment: MIC broth microdilution, P. aeruginosa PAM 1323 (medium level UPA resistance); type: cell-based
[11] = test system: Pasteurella multocida pm002; experiment: MIC broth microdilution, P. multocida pm002 (wild type); type: cell-based
[12] = test system: Haemophilus influenzae hf032; experiment: MIC broth microdilution, H. influenzae hf032; type: cell-based; settings: strain hf032, Haemophilus test medium
Description: (§1) In a second panel, Table 5, compounds of this invention were tested for their antimicrobial activity against the bacterial strains H. influenzae hf032 and S. pneumoniae ATCC 49629.
(§2) As above, a broth microdilution assay was used but the culture media were varied according to the specific growth requirements of each bacteria according to the recommendations of the NCCLS. For instance, susceptibility testing for H, influenzae was performed using Haemophilus test medium (HTM-Remel, cat. #20-042). For S. pneumoniae, cation adjusted MHB (CAMHB) containing 4% lysed horse blood was used. MICs were determined as described above.

[13] = test system: Streptococcus pneumoniae ATCC 49619; experiment: MIC broth microdilution, S. pneumoniae ATCC 49619; type: cell-based; settings: ATCC 49619, CAMHB containing 4% lysed horse blood
Description: as §1, §2

[14] = test system: Mycobacterium tuberculosis H37Rv; experiment: MIC agar dilution, M. tuberculosis H37Rv; type: cell-based
[15] = test system: Mycobacterium tuberculosis TN913; experiment: MIC agar dilution, M. tuberculosis TN913; type: cell-based
[16] = test system: Mycobacterium fortuitum ATCC 6841; experiment: MIC broth microdilution, M. fortuitum ATCC 6841; settings: 72 hours at 35° C., CAMHB
[17] = test system: Mycobacterium smegmatis ATCC 19420; experiment: MIC broth microdilution, M. smegmatis ATCC 19420; settings: 72 hours at 35° C., CAMHB
[18] = target: E. coli translocase (Escherichia coli, UniProt P0A6W3)
E. coli translocase, sequence (P0A6W3 whole entry): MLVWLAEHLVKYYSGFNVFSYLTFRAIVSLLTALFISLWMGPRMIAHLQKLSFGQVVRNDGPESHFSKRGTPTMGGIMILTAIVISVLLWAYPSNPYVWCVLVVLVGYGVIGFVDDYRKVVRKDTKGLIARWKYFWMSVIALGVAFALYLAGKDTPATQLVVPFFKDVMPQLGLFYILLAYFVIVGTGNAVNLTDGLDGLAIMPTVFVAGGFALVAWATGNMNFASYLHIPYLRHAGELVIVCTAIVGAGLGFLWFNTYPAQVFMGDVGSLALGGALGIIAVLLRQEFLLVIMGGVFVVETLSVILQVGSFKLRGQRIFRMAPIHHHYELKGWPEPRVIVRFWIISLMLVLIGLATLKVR

[19] = target: bacterial translocase I (phospho-N-acetylmuramyl-pentapeptide translocase) (Escherichia coli, UniProt P0A6W3); settings: background statement; cited from earlier work
bacterial translocase I (phospho-N-acetylmuramyl-pentapeptide translocase), sequence (P0A6W3 whole entry): as above

[20] = test system: mammalian enzymes that catalyze the formation of lipid-linked saccharides; settings: background statement; cited from earlier work

| Compound | antibacterial / biological activity (in words) [9] | MIC (μg/ml) Broth microdilution [1] | MIC (μg/ml) Broth microdilution [2] | MIC (μg/ml) Broth microdilution [3] | MIC (μg/ml) Broth microdilution [10] | MIC (μg/ml) Broth microdilution [4] | MIC (μg/ml) Broth microdilution [5] | MIC (μg/ml) Broth microdilution [6] | MIC (μg/ml) Broth microdilution [7] | MIC (μg/ml) Broth microdilution [8] | MIC (μg/ml) Broth microdilution [11] | MIC H37RV (SENSITIVE) [14] | MIC TN913 (SENSITIVE) [15] | other results |
| --- | --- | --- | --- | --- | --- | --- | --- | --- | --- | --- | --- | --- | --- | --- |
| C[C@H](N)C(=O)N(C)[C@@H](C)[C@H](NC(=O)[C@H](C)NC(=O)N[C@@H](Cc1c[nH]c2ccccc12)C(=O)O)C(=O)NC[C@H]1C[C@@H](O)[C@H](n2ccc(=O)[nH]c2=O)O1 [Compound 34] | comparable biological activity to dihydropacidamycin D | – | – | – | – | – | – | – | – | – | – | – | – | MIC ([1]; Pseudomonas aeruginosa, PAM1020, read-out: MIC (μg/ml) Broth microdilution): 64 µg/mL (≈ 89.7 µM); MIC ([2]; Pseudomonas aeruginosa, PAM1154, read-out: MIC (μg/ml) Broth microdilution): 4 µg/mL (≈ 5.6 µM); MIC ([3]; Pseudomonas aeruginosa, PAM1135, read-out: MIC (μg/ml) Broth microdilution): > 512 µg/mL; MIC ([4]; Escherichia coli, COLIMC4100, read-out: MIC (μg/ml) Broth microdilution): 128 µg/mL (≈ 179 µM); MIC ([5]; Escherichia coli, COLIMC4100ACRAB, read-out: MIC (μg/ml) Broth microdilution): 2 µg/mL (≈ 2.8 µM); MIC ([6]; Escherichia coli, read-out: MIC (μg/ml) Broth microdilution): 16 µg/mL (≈ 22.4 µM); MIC ([7]; Staphylococcus aureus, ATCC29213, read-out: MIC (μg/ml) Broth microdilution): 512 µg/mL (≈ 717 µM); MIC ([8]; Staphylococcus aureus, 83254, read-out: MIC (μg/ml) Broth microdilution): > 512 µg/mL |
| CSCCC(NC(=O)NC(Cc1ccc(O)cc1)C(=O)O)C(=O)NC(C(=O)NCC1CC(O)C(n2ccc(=O)[nH]c2=O)O1)C(C)N(C)C(=O)C(C)N [Compound 115, 1-[5′[(2S,3S)-N^3-L-Alanyl-N^2-[N-[[(1S)-1-carboxy-4-hydroxyphenethyl)-carbamoyl]-L-methionyl]-N^3-methyl-2,3-diaminobutyramido]-3′,5′-dideoxy-α-L-arabinofuranosyl]uracil] | – | 4 µg/mL (≈ 5.33 µM) | 2 µg/mL (≈ 2.66 µM) | >512 µg/mL | 256 µg/mL (≈ 341 µM) | >512 µg/mL | 8 µg/mL (≈ 10.7 µM) | 32 µg/mL (≈ 42.6 µM) | >512 µg/mL | >512 µg/mL | 128 µg/mL (≈ 170 µM) | >30 µg/mL | >30 µg/mL | MIC Broth microdilution H. influenzae [12]: 16 µg/mL (≈ 21.3 µM); MIC Broth microdilution S. pneumoniae [13]: >512 µg/mL |
| CC(N)C(=O)N(C)C(C)C(NC(=O)C(Cc1ccc(F)cc1)NC(=O)NC(Cc1c[nH]c2ccccc12)C(=O)O)C(=O)NCC1CC(O)C(n2ccc(=O)[nH]c2=O)O1 [Compound 158, 1-[5′-[(2S,3S)-N^3-L-Alanyl-N^2-[N-[[(1S)-1-carboxy-2-indol-3-ylethyl]carbamoyl]-L-4-fluorophenylalanyl]-N^3-methyl-2,3-diaminobutyramidol-3′,5′-dideoxy-α-L-arabinofuranosyl]uracil] | – | 64 µg/mL (≈ 79.2 µM) | 8 µg/mL (≈ 9.9 µM) | 256 µg/mL (≈ 317 µM) | 256 µg/mL (≈ 317 µM) | 512 µg/mL (≈ 634 µM) | <1 µg/mL | 32 µg/mL (≈ 39.6 µM) | 512 µg/mL (≈ 634 µM) | 512 µg/mL (≈ 634 µM) | 64 µg/mL (≈ 79.2 µM) | 10 µg/mL (≈ 12.4 µM) | 10 µg/mL (≈ 12.4 µM) | MIC Broth microdilution M. fortuitum ATCC 6841 [16]: 32 µg/mL (≈ 39.6 µM); MIC Broth microdilution M. smegmatis ATCC19420 [17]: 1 µg/mL (≈ 1.24 µM) |
| CC(C)CC(N)C(=O)N(C)C(C)C(NC(=O)C(Cc1ccccc1)NC(=O)NC(Cc1c[nH]c2ccccc12)C(=O)O)C(=O)NCC1CC(O)C(n2ccc(=O)[nH]c2=O)O1 [Compound 159, 1-[5′-[(2S,3S)-N^2-[N-[[(1S)-1-Carboxy-2-indol-3-ylethyl]carbamoyl]-L-phenylalanyl]l-N^3-L-leucyl-N^3-methyl-2,3-diaminobutyramido]-3′,5′-dideoxy-α-L-arabinofuranosyl]uracil] | – | 128 µg/mL (≈ 154 µM) | 8 µg/mL (≈ 9.62 µM) | 256 µg/mL (≈ 308 µM) | 256 µg/mL (≈ 308 µM) | >512 µg/mL | 2 µg/mL (≈ 2.4 µM) | 64 µg/mL (≈ 76.9 µM) | >512 µg/mL | >512 µg/mL | 128 µg/mL (≈ 154 µM) | 30 µg/mL (≈ 36.1 µM) | 30 µg/mL (≈ 36.1 µM) | MIC Broth microdilution M. fortuitum ATCC 6841 [16]: 64 µg/mL (≈ 76.9 µM); MIC Broth microdilution M. smegmatis ATCC19420 [17]: 8 µg/mL (≈ 9.62 µM) |
| Dihydropacidamycin D [Compound 3] | displayed the antibacterial spectrum of pacidamycin D | 16 µg/mL | 8 µg/mL | >512 µg/mL | – | 128 µg/mL | 2 µg/mL | 32 µg/mL | 512 µg/mL | 256 µg/mL | – | – | – | inhibition of E. coli translocase (in words) [18]: inhibitor of E. coli translocase |
| Tetrahydropacidamycin D [Compound 4] | exhibited antibacterial activity | 8 µg/mL | 4 µg/mL | 512 µg/mL | – | 256 µg/mL | 2 µg/mL | 64 µg/mL | >512 µg/mL | >512 µg/mL | – | – | – | inhibition of translocase I (in words) ([18]; species of enzyme not given): inhibited translocase I |
| amphomycin [reference compound] | – | 64 µg/mL | 4 µg/mL | 512 µg/mL | – | 256 µg/mL | 4 µg/mL | 16 µg/mL | >512 µg/mL | >512 µg/mL | – | – | – | translocase inhibition (in words) [19]: translocase inhibitors; action on mammalian enzymes / lipid-linked saccharide formation (in words) [20]: also target mammalian enzymes |
| tunicamycin | – | – | – | – | – | – | – | – | – | – | – | – | – | translocase inhibition (in words) [19]: translocase inhibitors; action on mammalian enzymes / lipid-linked saccharide formation (in words) [20]: also target mammalian enzymes |
